Measurements published in patent US8796415B2, “Inhibitors of guanine exchange factors and their use as anticancer drugs” (Centre National de la Recherche Scientifique, priority 2009, dated 2014).
Entries after “also recorded” stand apart in the source; their conditions may differ. Ends that are not written are not given here.

Key:
Format in all cases: biochemical
[1] = molecular target: Tgat; assay: FRET fluorescence nucleotide exchange kinetics assay, Tgat/RhoA; settings: for Ki / inhibition of Tgat GEF activity in kinetics fluorescence assay: RhoA 1 μM, Tgat 0.5 μM; for Ki: GST-TRIP peptides up to 100 μM, read-out: apparent inhibition constant (Kiapp) towards Tgat; for inhibition of Tgat GEF activity in kinetics fluorescence assay: increasing GST-TRIP peptide concentrations up to 100 μM; for efficiency at inhibiting the exchange activity of Tgat relative to TRIPα: from Kiapp values
Protocol: FIG. 4 represents the inhibition of Tgat GEF activity by TRIPT16M/L17S (SEQ ID NO: 41) and TRIPE32G (SEQ ID NO: 40) in vitro. FRET fluorescence exchange assays were performed using constant concentrations of RhoA (1 μM), equal amounts (0.5 μM) of Tgat (left panel) or Trio DH2 (right panel), and increasing concentrations of GST-TRIP peptides, up to 100 μM. Results were expressed as kobs values plotted as a function of the indicated TRIP inhibitor concentration.
FIG. 5 represents a histogram showing the apparent inhibition constants (Ki app) of the TRIP peptides for Tgat and Trio DH2, as indicated. The values and error bars are calculated from at least three independent experiments. Error bars represent standard deviation
Specific exchange rates of Tgat were measured with a fluorescence-based kinetics assay, using a 6His-RhoA construct (gift of Dr Derewenda, Charlottesville University, Virginia) purified as described (Oleksy et al., 2004). Exchange activities were followed by fluorescence resonance energy transfer (FRET) between the GTPase tryptophanes (λex=292 nm) and the methylanthranyloil group of mant-GTP (λem=440 nm) as described (Zeeh et al., 2006). All fluorescence measurements were performed with a CARY Eclipse fluorimeter (Varian). For each kobs determination, RhoA (1 μM) and Tgat (or Trio DH2) were preincubated 3 min at 25° C. in 700 μL reaction buffer (50 mM Tris pH 7.5, 50 mM NaCl, 2 mM MgCl2, 1 mM DTT). The exchange reaction was initiated by 10 μM mant-GTP and measured for 10 min until the plateau was reached. kobs were calculated by fitting the FRET fluorescence changes to a single exponential, using the Kaleidagraph software. Specific exchange activities were calculated by linear regression of kobs values determined for a range of GEF concentrations (0, 0.2, 0.3, 0.4, 0.5 and 1 μM).
Radioactive [3H]-GDP dissociation assays were performed as described (Schmidt et al., 2002). Briefly, 0.15 μM GST-Trio DH2-PH2 was preincubated for 15 min with 3 μM of GST-TRIP inhibitors. The reaction was started by addition of 0.4 μM [3H]-GDP-loaded RhoA and 1 mM GTP, and the reaction mix was filtered after 0 min and 15 min incubation at 25° C. Inhibition efficiency is expressed as the ratio between [3H]-GDP-bound RhoA at 15 and 0 min. Apparent inhibition constants (Kiapp) of TRIP-like peptides were determined from kobs values obtained at increasing peptide concentrations using the above fluorescence nucleotide exchange assay. Kiapp was calculated from the hyperbolic fit of kobs values as a function of the inhibitor concentration as described (Zeeh et al., 2006). TRIP-like peptide specificity was assayed using mant-GTP fluorescence kinetics (λex=360 nm, λem=460 nm) in a FLX800 Microplate Fluorescence Reader (BioTek Instruments). 0.5 μM Tgat, p63RhoGEF, Lbc, and p115RhoGEF, or 0.1 μM Dbl and Trio DH1-PH1 were preincubated 5 min at 25° C. in the presence of 20 μM GST, GST-TRIPE32G or TRIPT16M/L17S and 1 μM mant-GTP. The exchange reaction was initiated by addition of 1 μM RhoA or RhoG and monitored for 10 min.

[2] = molecular target: T1, Trio DH2-PH2 (Homo sapiens, UniProt O75962); assay: [3H]-GDP dissociation assay on Trio DH2-PH2; settings: 0.15 μM GST-Trio DH2-PH2, 3 μM GST-TRIP inhibitors
T1 construct: made in house
Protocol: Each residue of the active core of TRIPα (amino acids 9-36; Schmidt et al., 2002) was mutated to alanine, except cysteines which were changed into serines. All TRIPα mutants were then tested for their inhibitory activity on Trio DH2-PH2 in [3H]-GDP dissociation assays. This analysis mapped two essential regions of TRIPα, amino acids 9-20 and 28-33, where single mutations were sufficient to impair inhibition (see table 3).
The inventors next reasoned that peptides that would bind stronger to the GEF domain may also be better at inhibiting its activity. […] These clones were then produced as GST fusions and analyzed for their inhibition of Trio DH2-PH2, using the [3H]-GDP dissociation assay. […]
An aptamer library derived from TRIPα was created by PCR-based random mutagenesis of TRIPα inserted into the yeast two-hybrid vector pPC86. […] Selected peptides were then produced as GST-fusions and analyzed for their inhibition of Trio DH2-PH2 using the [3H]-GDP dissociation assay.
Radioactive [3H]-GDP dissociation assays were performed as described (Schmidt et al., 2002). […] Inhibition efficiency is expressed as the ratio between [3H]-GDP-bound RhoA at 15 and 0 min. Apparent inhibition constants (Kiapp) of TRIP-like peptides were determined from kobs values obtained at increasing peptide concentrations using the above fluorescence nucleotide exchange assay. […]

[3] = system: Tgat; assay: mant-GTP fluorescence kinetics specificity assay, RhoA/Tgat; settings: peptide 20 μM, 0.5 μM Tgat, 1 μM RhoA, 1 μM mant-GTP
Protocol: (§1) Figures represent the comparison of TRIPE32G and TRIPT16M/L17S inhibition efficiency on different GTPase/RhoGEF systems, using 1 μM GTPase and 0.5 μM GEF as follows:
(§2) In each assay, the peptides were used at a concentration of 20 μM, corresponding to a 40 fold molar excess of inhibitor versus GEF. All fluorescence kinetics assays were performed using 1 μM mant-GTP. Results are expressed as Relative Fluorescence Units (RFU) versus time. The reaction performed in the absence of GEF reflects the spontaneous exchange activity of the GTPase.
(§3) Radioactive [3H]-GDP dissociation assays were performed as described (Schmidt et al., 2002). […] Inhibition efficiency is expressed as the ratio between [3H]-GDP-bound RhoA at 15 and 0 min. Apparent inhibition constants (Kiapp) of TRIP-like peptides were determined from kobs values obtained at increasing peptide concentrations using the above fluorescence nucleotide exchange assay. Kiapp was calculated from the hyperbolic fit of kobs values as a function of the inhibitor concentration as described (Zeeh et al., 2006). TRIP-like peptide specificity was assayed using mant-GTP fluorescence kinetics (λex=360 nm, λem=460 nm) in a FLX800 Microplate Fluorescence Reader (BioTek Instruments). […] The exchange reaction was initiated by addition of 1 μM RhoA or RhoG and monitored for 10 min.

[4] = system: Dbl; assay: mant-GTP fluorescence kinetics specificity assay, RhoA/Dbl; settings: peptide 20 μM, 1 μM RhoA
Protocol: as §1, §2, §3

Dbl, sequence (P10911 495-809 limits assumed): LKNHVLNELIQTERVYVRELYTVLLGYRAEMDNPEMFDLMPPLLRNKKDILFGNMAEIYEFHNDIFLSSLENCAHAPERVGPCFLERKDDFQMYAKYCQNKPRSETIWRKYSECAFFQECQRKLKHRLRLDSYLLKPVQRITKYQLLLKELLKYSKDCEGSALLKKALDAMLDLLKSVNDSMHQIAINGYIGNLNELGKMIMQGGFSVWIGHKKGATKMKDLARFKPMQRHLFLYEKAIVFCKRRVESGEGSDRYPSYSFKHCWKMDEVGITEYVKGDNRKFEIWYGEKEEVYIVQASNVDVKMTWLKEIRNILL

| Substance | Ki [1] [µM] | inhibition of Tgat GEF activity in kinetics fluorescence assay [1] | inhibition of Tgat GEF activity in kinetics fluorescence assay ([1]; listed as GST-TRIPα) | Inhibition efficiency on Trio DH2-PH2 compared to TRIPα [2] | efficiency relative to TRIPα (Tgat GEF activity) [1] [fold] | efficiency at inhibiting the exchange activity of Tgat relative to TRIPα [1] | inhibition of Tgat exchange activity on RhoA [3] | effect on exchange activity of Dbl/RhoA [4] |
| --- | --- | --- | --- | --- | --- | --- | --- | --- |
| AREGADGAICGYNLATLVMLGPSERVFCPLCEPCSSDIYELM [TRIPα] | 89 ± 33 | rather ineffective | no effect | – | – | – | – | – |
| GST-TRIPE32G (AREGADGAICGYNLATLVMLGPSERVFCPLCGPCSSDIYELM; cysteine pairing not given here; also: GST fusion) | 7.4 ± 5 | inhibited Tgat GEF activity in a dose-dependent manner; also recorded: low micromolar range | – | highest inhibition on Trio DH2-PH2 | 15 | about 15 times | fully inhibited | no effect |
| GST-TRIPT16M/L17S | 5.1 ± 4 | inhibited Tgat GEF activity in a dose-dependent manner; also recorded: low micromolar range | – | highest inhibition on Trio DH2-PH2 | 15 | about 15 times | fully inhibited | no effect |
